# Source: patent US10966426B2, “Herbicidal compositions comprising phenylpyrimidines” (BASF SE, priority 2016, dated 2021)
# “And” between values parts separate entries of the source, which are not always exact repeats. Equal values may be shown once.
# Assays:
# Assay type in all cases: in vivo
# Ambrosia elatior = experiment: greenhouse pre-emergence treatment, AMBEL
# Procedure, shortened: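 Pre-emergence spray of compounds, alone or as combinations formulated as 10% emulsion concentrate in water, directly after sowing in loamy sand (~3.0% humus); pots hooded until rooting, kept at 10-25° C or 20-35° C per species for 2 to 4 weeks. Damage scored 0-100 (100 = no emergence/complete destruction); Colby expected value E=X+Y−(X·Y/100).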
# Poa annua = experiment: greenhouse post-emergence treatment, POAAN
# Procedure, shortened: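 Seeds sown per species in pots of loamy sand; seedlings either grown in place or transplanted days before treatment. Post-emergence spray of water-based liquor at 3–15 cm height. Injury rated 0–100 over 2 to 4 weeks.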
# Alopecurus myosuroides = experiment: greenhouse post-emergence treatment, ALOMY
# Procedure, shortened: (§1)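 Scoring ran on a 0-100 scale, 100 meaning no emergence or destroyed above-ground parts, over a 2-4 week period; Colby formula E=X+Y−(X·Y/100) gave expected mixture effects. Species grew separately in loamy sand (about 3.0% humus) at 10-25° C or 20-35° C, with water as solvent.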
# Papaver rhoeas = experiment: greenhouse post-emergence treatment, PAPRH
# Procedure, shortened: (§2)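 Visual herbicidal effect (0–100) recorded over a 2 to 4 week test period after foliar treatment at plant heights of 3 to 15 cm. Expected combination effects derived by the Colby formula from single-component effects X and Y.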
# Avena fatua = experiment: greenhouse post-emergence treatment, AVEFA
# Procedure, shortened: as §1
# Matricaria chamomilla = experiment: greenhouse post-emergence treatment, MATCH
# Procedure, shortened: as §2
# Lolium multiflorum = experiment: greenhouse post-emergence treatment, LOLMU
# Procedure, shortened: as §1
# [1] = 20 DAT, Ex. 26 solo 62.5 gai/ha
compound,measurement,setting,value
COC(=O)c1nc(C2CC2)ncc1-c1ccc(F)cc1Cl [Ex. 26],% activity,"Ambrosia elatior; 20 DAT, AMBEL, Ex. 26 solo 31.25 gai/ha",0%
same,% activity,"Ambrosia elatior; 20 DAT, AMBEL, Ex. 26 solo 62.5 gai/ha",0%
same,% activity,"Ambrosia elatior; 20 DAT, AMBEL, Ex. 26 solo 125 gai/ha",0%
same,% activity,"Ambrosia elatior; 20 DAT, AMBEL, Ex. 26 solo 250 gai/ha",0%
same,% activity,"Ambrosia elatior; 20 DAT, Ex. 26 solo 31.25 gai/ha",0%
same,% activity,Ambrosia elatior; [1],0%
same,% activity,"Ambrosia elatior; 20 DAT, Ex. 26 solo 125 gai/ha",0%
same,% activity,"Ambrosia elatior; 21 DAT, AMBEL, Ex. 26 solo 250 gai/ha",0%
same,% activity,"Ambrosia elatior; AMBEL, 20 DAT, solo Ex. 26 62.5 gai/ha",0%
same,% activity,"Ambrosia elatior; AMBEL, 20 DAT, solo Ex. 26 125 gai/ha",0%
same,% activity,"Ambrosia elatior; AMBEL, Ex. 26 solo 31.25 gai/ha, 20 DAT",0%
same,% activity,"Ambrosia elatior; AMBEL, Ex. 26 solo 62.5 gai/ha, 20 DAT",0%
same,% activity,"Ambrosia elatior; AMBEL, Ex. 26 solo 125 gai/ha, 20 DAT",0%
same,% activity,"Ambrosia elatior; Ex. 26 solo 250 gai/ha, 21 DAT, AMBEL",0%
same,% activity,"Ambrosia elatior; Ex. 26 solo, 31.25 gai/ha, 20 DAT, AMBEL",0%
same,% activity,"Ambrosia elatior; Ex. 26 solo, 62.5 gai/ha, 20 DAT, AMBEL",0%
same,% activity,"Ambrosia elatior; Ex. 26 solo, 125 gai/ha, 20 DAT, AMBEL",0%
same,% activity,"Poa annua; 20 DAT, Ex. 26 solo 250 gai/ha",70%
same,% activity,"Poa annua; 20 DAT, POAAN, Ex. 26 solo 125 gai/ha",75% and 70%
same,% activity,"Poa annua; 20 DAT, POAAN, Ex. 26 solo 250 gai/ha",80%
same,% activity,"Poa annua; 21 DAT, Ex. 26 solo 125 gai/ha",65%
same,% activity,"Poa annua; 21 DAT, Ex. 26 solo 250 gai/ha",75%
same,% activity,"Poa annua; Ex. 26 solo 62.5 gai/ha, 21 DAT, POAAN",35%
same,% activity,"Poa annua; Ex. 26 solo, 125 gai/ha, 20 DAT, POAAN",40%
same,% activity,"Poa annua; Ex. 26 solo, 125 gai/ha, 21 DAT, POAAN",40%
same,% activity,"Poa annua; Ex. 26 solo, 250 gai/ha, 20 DAT, POAAN",70%
same,% activity,"Poa annua; POAAN, 21 DAT, solo Ex. 26 62.5 gai/ha",30%
same,% activity,"Poa annua; POAAN, Ex. 26 solo 125 gai/ha, 20 DAT",70%
same,% activity,"Poa annua; POAAN, Ex. 26 solo 250 gai/ha, 20 DAT",60%
same,% activity,"Alopecurus myosuroides; 20 DAT, ALOMY, Ex. 26 solo 62.5 gai/ha",65%
same,% activity,"Alopecurus myosuroides; 20 DAT, ALOMY, Ex. 26 solo 125 gai/ha",75%
same,% activity,"Alopecurus myosuroides; 20 DAT, ALOMY, Ex. 26 solo 250 gai/ha",75%
same,% activity,"Alopecurus myosuroides; 21 DAT, Ex. 26 solo 125 gai/ha",65%
same,% activity,"Alopecurus myosuroides; 21 DAT, Ex. 26 solo 250 gai/ha",75%
same,% activity,"Alopecurus myosuroides; ALOMY, Ex. 26 solo 125 gai/ha, 20 DAT",75% and 70%
same,% activity,"Alopecurus myosuroides; ALOMY, Ex. 26 solo 250 gai/ha, 20 DAT",75%
same,% activity,"Alopecurus myosuroides; Ex. 26 solo 62.5 gai/ha, 21 DAT, ALOMY",40%
same,% activity,"Alopecurus myosuroides; Ex. 26 solo 125 gai/ha, 20 DAT, ALOMY (pinoxaden table)",73%
same,% activity,"Alopecurus myosuroides; Ex. 26 solo 125 gai/ha, 20 DAT, ALOMY (pyridate table)",70%
same,% activity,"Alopecurus myosuroides; Ex. 26 solo 250 gai/ha, 20 DAT, ALOMY (pyridate table)",75%
same,% activity,Papaver rhoeas; [1],0%
same,% activity,"Papaver rhoeas; 20 DAT, Ex. 26 solo 125 gai/ha",0%
same,% activity,"Papaver rhoeas; 20 DAT, Ex. 26 solo 250 gai/ha",0%
same,% activity,"Papaver rhoeas; 20 DAT, PAPRH, Ex. 26 solo 125 gai/ha",0%
same,% activity,"Papaver rhoeas; 20 DAT, PAPRH, Ex. 26 solo 250 gai/ha",20%
same,% activity,"Papaver rhoeas; 21 DAT, Ex. 26 solo 125 gai/ha",0%
same,% activity,"Papaver rhoeas; 21 DAT, Ex. 26 solo 250 gai/ha",0%
same,% activity,"Papaver rhoeas; Ex. 26 solo 62.5 gai/ha, 20 DAT, PAPRH (pyridate table)",0%
same,% activity,"Papaver rhoeas; Ex. 26 solo 62.5 gai/ha, 20 DAT, PAPRH (pyroxsulam table)",0%
same,% activity,"Papaver rhoeas; Ex. 26 solo 62.5 gai/ha, 21 DAT, PAPRH",0%
same,% activity,"Papaver rhoeas; Ex. 26 solo 125 gai/ha, 20 DAT, PAPRH (pyridate table)",0%
same,% activity,"Papaver rhoeas; Ex. 26 solo 125 gai/ha, 20 DAT, PAPRH (pyroxsulam table)",0%
same,% activity,"Papaver rhoeas; Ex. 26 solo 250 gai/ha, 20 DAT, PAPRH (pyridate table)",45%
same,% activity,"Papaver rhoeas; Ex. 26 solo 250 gai/ha, 20 DAT, PAPRH (pyroxsulam table)",0%
same,% activity,"Papaver rhoeas; Ex. 26 solo 250 gai/ha, 21 DAT, PAPRH",0%
same,% activity,"Papaver rhoeas; Ex. 26 solo, 125 gai/ha, 21 DAT, PAPRH",0%
same,% activity,"Papaver rhoeas; Ex. 26 solo, 250 gai/ha, 21 DAT, PAPRH",15%
same,% activity,"Papaver rhoeas; PAPRH, Ex. 26 solo 62.5 gai/ha, 20 DAT",0%
same,% activity,"Papaver rhoeas; PAPRH, Ex. 26 solo 125 gai/ha, 20 DAT",0%
same,% activity,"Avena fatua; 20 DAT, AVEFA, Ex. 26 solo 62.5 gai/ha",65%
same,% activity,"Avena fatua; 20 DAT, AVEFA, Ex. 26 solo 125 gai/ha",75%
same,% activity,"Avena fatua; 20 DAT, AVEFA, Ex. 26 solo 250 gai/ha",75%
same,% activity,Avena fatua; [1],35%
same,% activity,"Avena fatua; 20 DAT, Ex. 26 solo 250 gai/ha",70%
same,% activity,"Avena fatua; AVEFA, 21 DAT, solo Ex. 26 62.5 gai/ha",70%
same,% activity,"Avena fatua; AVEFA, 21 DAT, solo Ex. 26 125 gai/ha",70%
same,% activity,"Avena fatua; AVEFA, Ex. 26 solo 125 gai/ha, 20 DAT",70%
same,% activity,"Avena fatua; AVEFA, Ex. 26 solo 250 gai/ha, 20 DAT",75%
same,% activity,"Avena fatua; Ex. 26 solo 62.5 gai/ha, 20 DAT, AVEFA",65%
same,% activity,"Avena fatua; Ex. 26 solo 62.5 gai/ha, 21 DAT, AVEFA",50%
same,% activity,"Avena fatua; Ex. 26 solo 125 gai/ha, 20 DAT, AVEFA",70%
same,% activity,"Avena fatua; Ex. 26 solo 250 gai/ha, 20 DAT, AVEFA",75%
same,% activity,"Avena fatua; Ex. 26 solo, 125 gai/ha, 20 DAT, AVEFA",65%
same,% activity,"Avena fatua; Ex. 26 solo, 125 gai/ha, 21 DAT, AVEFA",70%
same,% activity,"Avena fatua; Ex. 26 solo, 250 gai/ha, 20 DAT, AVEFA",85%
same,% activity,Matricaria chamomilla; [1],0%
same,% activity,"Matricaria chamomilla; 20 DAT, Ex. 26 solo 125 gai/ha",0%
same,% activity,"Matricaria chamomilla; 20 DAT, Ex. 26 solo 250 gai/ha",0%
same,% activity,"Matricaria chamomilla; 20 DAT, MATCH, Ex. 26 solo 62.5 gai/ha",0%
same,% activity,"Matricaria chamomilla; 20 DAT, MATCH, Ex. 26 solo 125 gai/ha",0%
same,% activity,"Matricaria chamomilla; 20 DAT, MATCH, Ex. 26 solo 250 gai/ha",0%
same,% activity,"Matricaria chamomilla; 21 DAT, Ex. 26 solo 250 gai/ha",0%
same,% activity,"Matricaria chamomilla; Ex. 26 solo 62.5 gai/ha, 20 DAT, MATCH (pyridate table)",0%
same,% activity,"Matricaria chamomilla; Ex. 26 solo 62.5 gai/ha, 20 DAT, MATCH (pyroxsulam table)",0%
same,% activity,"Matricaria chamomilla; Ex. 26 solo 125 gai/ha, 20 DAT, MATCH (pyridate table)",0%
same,% activity,"Matricaria chamomilla; Ex. 26 solo 125 gai/ha, 20 DAT, MATCH (pyroxsulam table)",0%
same,% activity,"Matricaria chamomilla; Ex. 26 solo 250 gai/ha, 20 DAT, MATCH (pyridate table)",0%
same,% activity,"Matricaria chamomilla; Ex. 26 solo 250 gai/ha, 20 DAT, MATCH (pyroxsulam table)",30%
same,% activity,"Matricaria chamomilla; Ex. 26 solo 250 gai/ha, 21 DAT, MATCH",0%
same,% activity,"Matricaria chamomilla; Ex. 26 solo, 125 gai/ha, 20 DAT, MATCH",0%
same,% activity,"Matricaria chamomilla; Ex. 26 solo, 250 gai/ha, 20 DAT, MATCH",0%
same,% activity,"Matricaria chamomilla; Ex. 26 solo, 250 gai/ha, 21 DAT, MATCH",20%
same,% activity,"Matricaria chamomilla; MATCH, 21 DAT, solo Ex. 26 62.5 gai/ha",0%
same,% activity,"Matricaria chamomilla; MATCH, Ex. 26 solo 62.5 gai/ha, 20 DAT",0%
same,% activity,Lolium multiflorum; [1],0%
same,% activity,"Lolium multiflorum; 20 DAT, LOLMU, Ex. 26 solo 125 gai/ha",65% and 55%
same,% activity,"Lolium multiflorum; 20 DAT, LOLMU, Ex. 26 solo 250 gai/ha",65%
same,% activity,"Lolium multiflorum; 21 DAT, Ex. 26 solo 125 gai/ha",10%
